Measurements published in the NIST ThermoML archive (doi:10.1021/je060271a).
± gives the expanded uncertainty stated by the source.

Settings: Liquid, Vibrating tube method

CCCC(=O)OCC(COC(=O)CCC)(COC(=O)CCC)COC(=O)CCC [pentaerythritol tetrabutyrate]
Settings | mass density [kg/m3]
283.15 K, 30442 kPa | 1076 ± 1.3
283.15 K, 30478 kPa | 1076.1 ± 1.3
283.15 K, 30509 kPa | 1076 ± 1.3
283.15 K, 30540 kPa | 1076.1 ± 1.3
283.15 K, 30577 kPa | 1076.1 ± 1.3
283.15 K, 30608 kPa | 1076.1 ± 1.3
283.15 K, 30639 kPa | 1076.1 ± 1.3
283.15 K, 30670 kPa | 1076.1 ± 1.3
283.15 K, 30707 kPa | 1076.1 ± 1.3
283.15 K, 30738 kPa | 1076.1 ± 1.3
283.15 K, 30775 kPa | 1076.2 ± 1.3
283.15 K, 30806 kPa | 1076.3 ± 1.3
283.15 K, 30838 kPa | 1076.2 ± 1.3
283.15 K, 30875 kPa | 1076.1 ± 1.3
283.15 K, 30906 kPa | 1076.2 ± 1.3
283.15 K, 30938 kPa | 1076.3 ± 1.3
283.15 K, 30975 kPa | 1076.3 ± 1.3
283.15 K, 31008 kPa | 1076.3 ± 1.3
283.15 K, 31040 kPa | 1076.3 ± 1.3
283.15 K, 31071 kPa | 1076.3 ± 1.3
283.15 K, 31110 kPa | 1076.4 ± 1.3
283.15 K, 31141 kPa | 1076.4 ± 1.3
283.15 K, 31179 kPa | 1076.4 ± 1.3
283.15 K, 31211 kPa | 1076.3 ± 1.3
283.15 K, 31243 kPa | 1076.4 ± 1.3
283.15 K, 31282 kPa | 1076.4 ± 1.3
283.15 K, 31314 kPa | 1076.4 ± 1.3
283.15 K, 31346 kPa | 1076.4 ± 1.3
283.15 K, 31385 kPa | 1076.5 ± 1.3
283.15 K, 31418 kPa | 1076.6 ± 1.3
283.15 K, 31450 kPa | 1076.4 ± 1.3
283.15 K, 31490 kPa | 1076.5 ± 1.3
283.15 K, 31523 kPa | 1076.5 ± 1.3
283.15 K, 31556 kPa | 1076.5 ± 1.3
283.15 K, 31595 kPa | 1076.5 ± 1.3
283.15 K, 31628 kPa | 1076.7 ± 1.3
283.15 K, 31662 kPa | 1076.7 ± 1.3
283.15 K, 31695 kPa | 1076.6 ± 1.3
283.15 K, 31735 kPa | 1076.6 ± 1.3
283.15 K, 31768 kPa | 1076.7 ± 1.3
283.15 K, 31807 kPa | 1076.7 ± 1.3
283.15 K, 31841 kPa | 1076.9 ± 1.3
283.15 K, 31875 kPa | 1076.7 ± 1.3
283.15 K, 31909 kPa | 1076.8 ± 1.3
283.15 K, 31949 kPa | 1076.8 ± 1.3
283.15 K, 31983 kPa | 1076.9 ± 1.3
283.15 K, 32023 kPa | 1076.9 ± 1.3
283.15 K, 32057 kPa | 1076.8 ± 1.3
283.15 K, 32092 kPa | 1076.8 ± 1.3
283.15 K, 32133 kPa | 1076.8 ± 1.3
283.15 K, 32167 kPa | 1076.9 ± 1.3
283.15 K, 32202 kPa | 1076.9 ± 1.3
283.15 K, 32236 kPa | 1076.9 ± 1.3
283.15 K, 32278 kPa | 1077 ± 1.3
283.15 K, 32312 kPa | 1076.9 ± 1.3
283.15 K, 32347 kPa | 1077 ± 1.3
283.15 K, 32390 kPa | 1077 ± 1.3
283.15 K, 32417 kPa | 1077.1 ± 1.3
283.15 K, 32453 kPa | 1077.1 ± 1.3
283.15 K, 32494 kPa | 1077.2 ± 1.3
283.15 K, 32536 kPa | 1077.1 ± 1.3
283.15 K, 32572 kPa | 1077.1 ± 1.3
283.15 K, 32614 kPa | 1077.1 ± 1.3
283.15 K, 32650 kPa | 1077 ± 1.3
283.15 K, 32692 kPa | 1077.2 ± 1.3
283.15 K, 32728 kPa | 1077.1 ± 1.3
283.15 K, 32764 kPa | 1077.2 ± 1.3
283.15 K, 32806 kPa | 1077.1 ± 1.3
283.15 K, 32845 kPa | 1077.2 ± 1.3
283.15 K, 32881 kPa | 1077.2 ± 1.3
283.15 K, 32918 kPa | 1077.2 ± 1.3
283.15 K, 32954 kPa | 1077.3 ± 1.3
283.15 K, 32998 kPa | 1077.3 ± 1.3
283.15 K, 33034 kPa | 1077.2 ± 1.3
283.15 K, 33071 kPa | 1077.4 ± 1.3
283.15 K, 33114 kPa | 1077.3 ± 1.4
283.15 K, 33151 kPa | 1077.4 ± 1.4
283.15 K, 33188 kPa | 1077.3 ± 1.3
283.15 K, 33232 kPa | 1077.5 ± 1.4
283.15 K, 33270 kPa | 1077.5 ± 1.4
283.15 K, 33308 kPa | 1077.4 ± 1.4
283.15 K, 33355 kPa | 1077.6 ± 1.4
283.15 K, 33391 kPa | 1077.5 ± 1.4
283.15 K, 33429 kPa | 1077.5 ± 1.4
283.15 K, 33473 kPa | 1077.6 ± 1.4
283.15 K, 33511 kPa | 1077.5 ± 1.4
283.15 K, 33548 kPa | 1077.5 ± 1.4
283.15 K, 33586 kPa | 1077.6 ± 1.4
283.15 K, 33631 kPa | 1077.7 ± 1.4
283.15 K, 33670 kPa | 1077.7 ± 1.4
283.15 K, 33708 kPa | 1077.7 ± 1.4
283.15 K, 33754 kPa | 1077.7 ± 1.4
283.15 K, 33792 kPa | 1077.6 ± 1.4
283.15 K, 33838 kPa | 1077.7 ± 1.4
283.15 K, 33878 kPa | 1077.8 ± 1.4
283.15 K, 33917 kPa | 1077.8 ± 1.4
283.15 K, 34179 kPa | 1077.9 ± 1.4
283.15 K, 34232 kPa | 1078 ± 1.4
283.15 K, 34278 kPa | 1078 ± 1.4
283.15 K, 34325 kPa | 1078 ± 1.4
283.15 K, 34380 kPa | 1078.1 ± 1.4
283.15 K, 34408 kPa | 1078.1 ± 1.4
283.15 K, 34413 kPa | 1078.1 ± 1.4
283.15 K, 34443 kPa | 1078.1 ± 1.4
283.15 K, 34447 kPa | 1078.3 ± 1.4
283.15 K, 34450 kPa | 1078 ± 1.4
283.15 K, 34451 kPa | 1078 ± 1.4
283.15 K, 34455 kPa | 1078.1 ± 1.4
283.15 K, 34530 kPa | 1078.2 ± 1.4
283.15 K, 34544 kPa | 1078.1 ± 1.4
283.15 K, 34545 kPa | 1078.1 ± 1.4
283.16 K, 104.2 kPa | 1059 ± 1.3
283.16 K, 104.7 kPa | 1059.1 ± 1.3
283.16 K, 105.7 kPa | 1059 ± 1.3
283.16 K, 107.3 kPa | 1059 ± 1.3
283.16 K, 108.9 kPa | 1059.1 ± 1.3
283.16 K, 113.9 kPa | 1059 ± 1.3
283.16 K, 119.6 kPa | 1059.1 ± 1.3
283.16 K, 129.7 kPa | 1059 ± 1.3
283.16 K, 145 kPa | 1059.2 ± 1.3
283.16 K, 173.9 kPa | 1059.1 ± 1.3
283.16 K, 201.7 kPa | 1059.2 ± 1.3
283.16 K, 220.1 kPa | 1059.2 ± 1.3
283.16 K, 241.7 kPa | 1059.2 ± 1.3
283.16 K, 261.3 kPa | 1059.2 ± 1.3
283.16 K, 284.4 kPa | 1059.2 ± 1.3
283.16 K, 305.4 kPa | 1059.2 ± 1.3
283.16 K, 329.3 kPa | 1059.3 ± 1.3
283.16 K, 363.7 kPa | 1059.2 ± 1.3
283.16 K, 391.3 kPa | 1059.1 ± 1.9
283.16 K, 432.3 kPa | 1059.2 ± 1.3
283.16 K, 466.5 kPa | 1059.2 ± 1.3
283.16 K, 498.2 kPa | 1059.2 ± 1.3
283.16 K, 527.5 kPa | 1059.2 ± 1.3
283.16 K, 550.1 kPa | 1059.3 ± 1.3
283.16 K, 577.4 kPa | 1059.3 ± 1.3
283.16 K, 602.2 kPa | 1059.4 ± 1.3
283.16 K, 628.6 kPa | 1059.3 ± 1.3
283.16 K, 657.3 kPa | 1059.4 ± 1.3
283.16 K, 694.8 kPa | 1059.2 ± 1.3
283.16 K, 725.1 kPa | 1059.3 ± 1.3
283.16 K, 756.3 kPa | 1059.4 ± 1.3
283.16 K, 786.4 kPa | 1059.4 ± 1.3
283.16 K, 816.8 kPa | 1059.4 ± 1.3
283.16 K, 854 kPa | 1059.4 ± 1.3
283.16 K, 886.5 kPa | 1059.4 ± 1.3
283.16 K, 919.6 kPa | 1059.5 ± 1.3
